From publication PMC9133015 (Nature Communications, 2022) come the findings set out here.

The structures appear in SMILES notation. “And” between values parts separate entries of the source, which are not always exact repeats. Equal entries are not always repeated.

Assay in all cases: Kinase inhibitor specificity profiling (Reaction Biology Corporation)
Common to all, as to format: biochemical
Holding throughout (parameters): % Enzyme Activity (relative to DMSO controls): concentration or dose not given beside the values

Test [1] has as its target T1, panel of 370 protein kinases (Homo sapiens, UniProt O00141).
T1 construct: purchased Reaction Biology Corporation (assay service)
To be noted: 2 h, kinase SGK1; read-out: % Enzyme Activity (relative to DMSO controls).

In test [2] the target is T2, panel of 370 protein kinases (Homo sapiens, UniProt O94804).
T2 construct: purchased Reaction Biology Corporation (assay service)
T2 sequence (O94804 whole entry): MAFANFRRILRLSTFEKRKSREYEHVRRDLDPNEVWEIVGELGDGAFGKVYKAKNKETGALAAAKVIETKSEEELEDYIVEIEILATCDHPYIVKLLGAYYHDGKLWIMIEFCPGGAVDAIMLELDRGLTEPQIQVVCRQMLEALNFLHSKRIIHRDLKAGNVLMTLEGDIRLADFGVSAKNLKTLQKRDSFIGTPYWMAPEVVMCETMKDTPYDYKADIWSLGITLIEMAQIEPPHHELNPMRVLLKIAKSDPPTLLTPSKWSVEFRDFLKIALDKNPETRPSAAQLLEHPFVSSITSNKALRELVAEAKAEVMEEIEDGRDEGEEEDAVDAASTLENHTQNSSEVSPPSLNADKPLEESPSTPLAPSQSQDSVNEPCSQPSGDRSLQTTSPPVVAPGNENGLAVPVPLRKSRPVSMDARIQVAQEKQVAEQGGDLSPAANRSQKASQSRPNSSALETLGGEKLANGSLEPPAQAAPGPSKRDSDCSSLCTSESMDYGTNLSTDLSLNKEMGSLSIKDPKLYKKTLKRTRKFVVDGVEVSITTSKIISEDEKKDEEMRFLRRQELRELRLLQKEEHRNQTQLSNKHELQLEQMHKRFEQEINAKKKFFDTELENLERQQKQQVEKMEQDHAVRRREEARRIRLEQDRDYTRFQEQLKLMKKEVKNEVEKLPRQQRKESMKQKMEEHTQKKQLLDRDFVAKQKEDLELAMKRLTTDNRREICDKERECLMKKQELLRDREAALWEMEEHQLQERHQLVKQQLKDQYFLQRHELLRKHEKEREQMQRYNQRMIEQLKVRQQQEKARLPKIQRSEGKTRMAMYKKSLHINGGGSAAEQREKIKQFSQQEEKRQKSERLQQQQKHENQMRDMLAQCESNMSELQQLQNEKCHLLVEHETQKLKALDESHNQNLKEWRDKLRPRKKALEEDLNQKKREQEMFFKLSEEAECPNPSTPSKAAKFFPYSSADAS
To be noted: kinase LOK/STK10.

The target of test [3] is T3, panel of 370 protein kinases (Homo sapiens, UniProt O94806).
T3 construct: purchased Reaction Biology Corporation (assay service)
The conditions noted are these: 2 h, kinase PKCnu/PRKD3; read-out: % Enzyme Activity (relative to DMSO controls).

In test [4] the target is T4, panel of 370 protein kinases (Homo sapiens, UniProt O95819).
T4 construct: purchased Reaction Biology Corporation (assay service)
To be noted: 2 h, kinase HGK/MAP4K4; read-out: % Enzyme Activity (relative to DMSO controls).

Test [5] concerns the target T5, panel of 370 protein kinases (Homo sapiens, UniProt P19784).
T5 construct: purchased Reaction Biology Corporation (assay service)
The conditions noted are these: 2 h, kinase CK2a2; read-out: % Enzyme Activity (relative to DMSO controls).

Test [6] deals with T6, panel of 370 protein kinases (Homo sapiens, UniProt P23458).
T6 construct: purchased Reaction Biology Corporation (assay service)
T6 sequence (P23458 whole entry): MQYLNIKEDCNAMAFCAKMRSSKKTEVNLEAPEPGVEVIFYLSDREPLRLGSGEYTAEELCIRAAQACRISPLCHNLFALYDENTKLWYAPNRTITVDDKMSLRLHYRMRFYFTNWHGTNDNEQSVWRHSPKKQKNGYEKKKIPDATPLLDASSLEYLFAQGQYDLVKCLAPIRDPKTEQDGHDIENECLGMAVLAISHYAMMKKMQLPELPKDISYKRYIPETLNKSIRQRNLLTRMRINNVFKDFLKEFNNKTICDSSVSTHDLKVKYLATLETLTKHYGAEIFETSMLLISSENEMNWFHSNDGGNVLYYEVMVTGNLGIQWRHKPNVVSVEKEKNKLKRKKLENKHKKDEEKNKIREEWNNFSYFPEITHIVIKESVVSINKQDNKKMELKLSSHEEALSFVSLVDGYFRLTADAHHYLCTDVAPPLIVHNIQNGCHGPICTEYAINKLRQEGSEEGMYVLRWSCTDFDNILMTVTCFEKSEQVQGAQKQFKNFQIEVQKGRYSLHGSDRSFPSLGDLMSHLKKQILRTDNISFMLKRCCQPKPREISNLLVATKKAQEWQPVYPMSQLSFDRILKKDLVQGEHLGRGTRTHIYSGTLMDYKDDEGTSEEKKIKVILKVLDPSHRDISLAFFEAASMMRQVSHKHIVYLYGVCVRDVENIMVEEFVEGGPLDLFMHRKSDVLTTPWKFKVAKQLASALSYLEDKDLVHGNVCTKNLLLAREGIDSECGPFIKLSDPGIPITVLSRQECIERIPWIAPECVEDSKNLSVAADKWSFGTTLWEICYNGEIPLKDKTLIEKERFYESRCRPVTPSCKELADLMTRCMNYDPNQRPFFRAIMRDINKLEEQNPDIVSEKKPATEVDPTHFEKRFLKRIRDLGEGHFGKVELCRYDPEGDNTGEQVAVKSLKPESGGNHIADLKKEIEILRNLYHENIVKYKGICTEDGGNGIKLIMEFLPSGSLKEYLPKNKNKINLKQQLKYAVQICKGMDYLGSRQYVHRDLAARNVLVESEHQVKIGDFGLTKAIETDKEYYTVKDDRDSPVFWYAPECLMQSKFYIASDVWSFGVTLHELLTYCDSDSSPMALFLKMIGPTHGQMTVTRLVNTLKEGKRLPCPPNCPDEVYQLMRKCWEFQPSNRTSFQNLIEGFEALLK
To be noted: kinase JAK1.

For test [7], the target named is T7, panel of 370 protein kinases (Homo sapiens, UniProt P30530).
T7 construct: purchased Reaction Biology Corporation (assay service)
To be noted: 2 h, kinase AXL; read-out: % Enzyme Activity (relative to DMSO controls).

Test [8] has as its target T8, panel of 370 protein kinases (Homo sapiens, UniProt P32298).
T8 construct: purchased Reaction Biology Corporation (assay service)
To be noted: 2 h, kinase GRK4; read-out: % Enzyme Activity (relative to DMSO controls).

Test [9] has as its target T9, panel of 370 protein kinases (Homo sapiens, UniProt P41743).
T9 construct: purchased Reaction Biology Corporation (assay service)
To be noted: 2 h, kinase PKCiota; read-out: % Enzyme Activity (relative to DMSO controls).

In test [10] the target is T10, panel of 370 protein kinases (Homo sapiens, UniProt P51957).
T10 construct: purchased Reaction Biology Corporation (assay service)
The conditions noted are these: 2 h, kinase NEK4; read-out: % Enzyme Activity (relative to DMSO controls).

The target in test [11] is T11, panel of 370 protein kinases (Homo sapiens, UniProt Q02156).
T11 construct: purchased Reaction Biology Corporation (assay service)
The conditions noted are these: 2 h, kinase PKCepsilon; read-out: % Enzyme Activity (relative to DMSO controls).

Test [12] addresses T12, panel of 370 protein kinases (Homo sapiens, UniProt Q08881).
T12 construct: purchased Reaction Biology Corporation (assay service)
To be noted: kinase ITK.

The target in test [13] is T13, panel of 370 protein kinases (Homo sapiens, UniProt Q13233).
T13 construct: purchased Reaction Biology Corporation (assay service)
The conditions noted are these: 2 h, kinase MEKK1; read-out: % Enzyme Activity (relative to DMSO controls).

The target in test [14] is T14, panel of 370 protein kinases (Homo sapiens, UniProt Q16620).
T14 construct: purchased Reaction Biology Corporation (assay service)
To be noted: 2 h, kinase TRKB; read-out: % Enzyme Activity (relative to DMSO controls).

For test [15], the target named is T15, panel of 370 protein kinases (Homo sapiens, UniProt Q52WX2).
T15 construct: purchased Reaction Biology Corporation (assay service)
The conditions noted are these: 2 h, kinase SBK1; read-out: % Enzyme Activity (relative to DMSO controls).

In test [16] the target is T16, panel of 370 protein kinases (Homo sapiens, UniProt Q8NEV4).
T16 construct: purchased Reaction Biology Corporation (assay service)
The conditions noted are these: 2 h, kinase MYO3A; read-out: % Enzyme Activity (relative to DMSO controls).

The target in test [17] is T17, panel of 370 protein kinases (Homo sapiens, UniProt Q8TDX7).
T17 construct: purchased Reaction Biology Corporation (assay service)
The conditions noted are these: 2 h, kinase NEK7; read-out: % Enzyme Activity (relative to DMSO controls).

Test [18] deals with T18, panel of 370 protein kinases (Homo sapiens, UniProt Q9BXA7).
T18 construct: purchased Reaction Biology Corporation (assay service)
To be noted: 2 h, kinase STK22D/TSSK1; read-out: % Enzyme Activity (relative to DMSO controls).

In test [19] the target is T19, panel of 370 protein kinases (Homo sapiens, UniProt Q9NWZ3).
T19 construct: purchased Reaction Biology Corporation (assay service)
T19 sequence (Q9NWZ3 whole entry): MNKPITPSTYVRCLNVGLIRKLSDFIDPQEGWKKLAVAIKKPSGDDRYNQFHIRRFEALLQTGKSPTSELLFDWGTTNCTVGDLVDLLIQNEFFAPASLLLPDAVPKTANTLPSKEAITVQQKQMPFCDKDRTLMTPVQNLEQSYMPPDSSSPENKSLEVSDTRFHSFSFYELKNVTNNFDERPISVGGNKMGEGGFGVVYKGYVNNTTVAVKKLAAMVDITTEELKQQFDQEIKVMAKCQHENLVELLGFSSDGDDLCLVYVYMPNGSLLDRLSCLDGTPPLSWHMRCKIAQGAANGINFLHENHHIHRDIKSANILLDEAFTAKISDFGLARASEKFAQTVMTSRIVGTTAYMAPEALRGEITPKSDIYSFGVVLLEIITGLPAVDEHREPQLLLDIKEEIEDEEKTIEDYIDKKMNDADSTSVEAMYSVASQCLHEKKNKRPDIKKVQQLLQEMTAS
To be noted: kinase IRAK4.

Test [20] concerns the target T20, panel of 370 protein kinases (Homo sapiens, UniProt Q9UQM7).
T20 construct: purchased Reaction Biology Corporation (assay service)
To be noted: 2 h, kinase CAMK2a; read-out: % Enzyme Activity (relative to DMSO controls).

Test [21] addresses T21, panel of 370 protein kinases (Homo sapiens, UniProt Q9Y463).
T21 construct: purchased Reaction Biology Corporation (assay service)
The conditions noted are these: 2 h, kinase DYRK1B; read-out: % Enzyme Activity (relative to DMSO controls).

The target in test [22] is T22, panel of 370 protein kinases (Homo sapiens, UniProt Q9Y6M4).
T22 construct: purchased Reaction Biology Corporation (assay service)
T22 sequence (Q9Y6M4 whole entry): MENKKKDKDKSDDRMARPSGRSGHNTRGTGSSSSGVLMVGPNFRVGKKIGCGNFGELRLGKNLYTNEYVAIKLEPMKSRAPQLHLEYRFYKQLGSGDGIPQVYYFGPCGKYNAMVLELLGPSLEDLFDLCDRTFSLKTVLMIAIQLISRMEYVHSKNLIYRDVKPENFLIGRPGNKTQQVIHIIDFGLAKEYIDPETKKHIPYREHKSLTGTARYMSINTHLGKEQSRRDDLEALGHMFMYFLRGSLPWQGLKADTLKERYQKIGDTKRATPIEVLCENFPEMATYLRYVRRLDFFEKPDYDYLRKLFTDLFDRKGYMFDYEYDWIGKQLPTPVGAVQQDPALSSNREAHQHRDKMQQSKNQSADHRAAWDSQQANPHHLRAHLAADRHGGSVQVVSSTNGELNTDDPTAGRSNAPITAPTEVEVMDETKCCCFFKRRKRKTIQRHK
The conditions noted are these: kinase CK1G3.

T12 sequence (Q08881 whole entry): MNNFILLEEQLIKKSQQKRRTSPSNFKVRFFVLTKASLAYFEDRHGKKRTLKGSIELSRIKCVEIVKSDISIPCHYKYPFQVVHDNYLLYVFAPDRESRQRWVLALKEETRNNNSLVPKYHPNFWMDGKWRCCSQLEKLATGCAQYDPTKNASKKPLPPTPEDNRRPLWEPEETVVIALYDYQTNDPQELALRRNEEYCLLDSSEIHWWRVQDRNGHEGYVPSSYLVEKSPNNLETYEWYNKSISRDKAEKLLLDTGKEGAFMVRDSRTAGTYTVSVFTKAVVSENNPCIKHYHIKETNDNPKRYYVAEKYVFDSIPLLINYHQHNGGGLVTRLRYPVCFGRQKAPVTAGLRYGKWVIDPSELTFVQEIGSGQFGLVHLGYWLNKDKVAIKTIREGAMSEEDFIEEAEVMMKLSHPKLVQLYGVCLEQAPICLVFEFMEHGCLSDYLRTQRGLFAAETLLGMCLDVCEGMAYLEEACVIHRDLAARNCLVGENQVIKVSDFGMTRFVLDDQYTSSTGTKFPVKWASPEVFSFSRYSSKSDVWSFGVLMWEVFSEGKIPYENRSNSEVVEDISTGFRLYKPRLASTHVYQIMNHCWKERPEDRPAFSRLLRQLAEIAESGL
T21 sequence (Q9Y463 whole entry): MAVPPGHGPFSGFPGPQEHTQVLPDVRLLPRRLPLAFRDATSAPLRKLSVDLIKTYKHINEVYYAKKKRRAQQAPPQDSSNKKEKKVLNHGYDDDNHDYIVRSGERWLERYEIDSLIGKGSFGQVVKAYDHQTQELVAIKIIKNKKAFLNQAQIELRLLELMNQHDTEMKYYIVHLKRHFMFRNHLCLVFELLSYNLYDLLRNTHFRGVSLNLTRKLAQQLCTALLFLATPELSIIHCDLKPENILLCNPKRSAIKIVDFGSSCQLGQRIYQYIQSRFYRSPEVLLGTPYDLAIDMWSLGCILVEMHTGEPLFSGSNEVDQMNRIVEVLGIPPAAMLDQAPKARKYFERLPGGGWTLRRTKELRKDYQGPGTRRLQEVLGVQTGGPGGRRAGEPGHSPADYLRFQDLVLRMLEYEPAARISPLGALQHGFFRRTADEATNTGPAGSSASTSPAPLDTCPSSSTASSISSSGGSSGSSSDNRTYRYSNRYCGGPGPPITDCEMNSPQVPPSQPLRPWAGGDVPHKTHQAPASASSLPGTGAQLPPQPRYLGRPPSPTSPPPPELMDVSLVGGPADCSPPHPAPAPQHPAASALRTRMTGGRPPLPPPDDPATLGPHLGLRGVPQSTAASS
T8 sequence (P32298 whole entry): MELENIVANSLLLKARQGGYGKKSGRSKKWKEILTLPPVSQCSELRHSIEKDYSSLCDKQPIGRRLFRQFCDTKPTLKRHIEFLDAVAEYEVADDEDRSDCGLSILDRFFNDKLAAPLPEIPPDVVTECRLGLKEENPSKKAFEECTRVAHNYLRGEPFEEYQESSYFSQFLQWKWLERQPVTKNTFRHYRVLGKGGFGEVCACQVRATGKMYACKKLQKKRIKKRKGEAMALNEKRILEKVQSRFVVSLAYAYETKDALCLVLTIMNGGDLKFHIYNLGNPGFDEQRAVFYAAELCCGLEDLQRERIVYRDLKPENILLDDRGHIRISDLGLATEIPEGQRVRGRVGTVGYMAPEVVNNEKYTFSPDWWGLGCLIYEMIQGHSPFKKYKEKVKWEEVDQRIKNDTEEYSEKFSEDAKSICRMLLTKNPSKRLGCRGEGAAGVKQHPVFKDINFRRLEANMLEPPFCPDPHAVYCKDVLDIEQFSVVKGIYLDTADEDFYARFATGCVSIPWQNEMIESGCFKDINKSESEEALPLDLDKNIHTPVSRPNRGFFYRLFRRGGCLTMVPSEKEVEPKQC

Regarding `CCN1CCN(C(=O)c2ccc(Nc3ncc(F)c(-c4ccc5nc(N(C)C)sc5c4)n3)nc2)CC1` [YK-2-69], the remaining activity at 1 µM in test [1] came to 60.9%; in test [3], 75.6%; in [4], 86.8%; in test [5], 51.4%; in [7], 94.3%; in test [8] it was 95.1%. Further, the remaining activity at 1 µM in [9] was 84.8%; in test [10], 112%; in test [11], 91.3%; in [13] it was 99.7%; in test [14] it was 88.6%; in test [15] it was 103%. The remaining activity at 1 µM in test [16] is 103%; in test [17], 96.7%; in test [18], 91.2%; in test [20], 37.5%; in [21], 40.7%. Also, the “% Enzyme Activity (relative to DMSO controls)” value in test [2] is 97.88% and 97.48%; in test [6], 103.96% and 100.40%; in [12], 117.90% and 109.49%; in test [19], 99.99% and 96.94%; in [22], 114.34% and 110.21%.
